Data on 37 compounds can be found in US8940716B2, “Bicyclic heteroaryl compounds as GPR119 modulators” (Bristol-Myers Squibb Company, priority 2010, dated 2015).

Like-named read-outs stand apart in the source and are kept apart here.

For this assay, the target named is T1, human-mouse chimeric GPR119 (Homo sapiens, UniProt Q8TDV5, A235T/C313R/C323Y/E253K/F304I/F307L/G211A/G245S/H255C/K284R/L224V/L258Q/L288Q/L301F/P218V/P318T/Q252H/R262K/S214P/S219N/S228A/S309P/S322A/T217S/T239S/V227I/V300F).
T1 construct: the first 198 amino acids of human GPR119; the C-terminal 137 amino acids of the mouse receptor; expressed in transfected cells
T1 sequence (Q8TDV5 with tags, fused parts or gaps G211A/S214P/T217S/P218V/S219N/L224V/V227I/S228A/A235T/T239S/G245S/Q252H/E253K/H255C/L258Q/R262K/K284R/L288Q/V300F/L301F/F304I/F307L/S309P/C313R/P318T/S322A/C323Y): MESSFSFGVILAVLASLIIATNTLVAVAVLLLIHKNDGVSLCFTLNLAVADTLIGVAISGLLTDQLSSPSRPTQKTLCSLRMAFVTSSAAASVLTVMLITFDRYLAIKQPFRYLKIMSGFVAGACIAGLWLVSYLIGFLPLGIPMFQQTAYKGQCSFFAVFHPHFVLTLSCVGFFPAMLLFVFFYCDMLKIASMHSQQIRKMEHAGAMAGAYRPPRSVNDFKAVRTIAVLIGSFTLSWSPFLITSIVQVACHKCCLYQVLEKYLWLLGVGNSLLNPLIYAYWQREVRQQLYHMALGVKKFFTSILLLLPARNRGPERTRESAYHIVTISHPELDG
As to the kind of experiment: Tet-inducible cAMP assay. It is filed as cell-based. As to the method: The in vitro modulation of recombinant human GPR119 was determined as follows.
A human-mouse chimeric GPR119 expression construct encoding 3 copies of the FLAG epitope tag, the first 198 amino acids of human GPR119 and the C-terminal 137 amino acids of the mouse receptor was cloned into a tetracycline inducible vector pcDNA5/FRT/TO (Invitrogen #V6520-20), which includes a hygromycin-resistance marker. Tightly controlled receptor expression was achieved by stable integration of this construct into the genome of a specific host cell line, Flp-In-T-Rex-HEK293, expressing the tetracycline repressor (Invitrogen). Once a stable hygromycin-resistant cell line was generated, the cells were maintained at 37° C. in a humidified 5% CO2 atmosphere in culture medium consisting of Dulbecco's modified Eagle's medium (DMEM; Invitrogen #11960) supplemented with 2 mM L-glutamine, 10% fetal bovine serum, 200 μg/ml hygromycin B, and 15 μg/ml blasticidin.
Forty-eight hours prior to the cAMP accumulation assay, cells stably expressing the chimeric human/mouse GPR119 construct were seeded at a density of 4×10^3 cells/well in 384 well poly-D-lysine coated solid white plates (BD #35-6661) and grown at 37° C. in a humidified 5% CO2 atmosphere in culture medium supplemented with 1 μg/ml tetracycline to induce expression of the receptor. On the day of the assay, medium was removed and cells were incubated for 50 min. at 37° C. in a humidified 5% CO2 atmosphere in 20 μl/well of assay buffer (phosphate-buffered saline with Ca^2+ and Mg^2+, 12 mM glucose, 0.1 mM isobutyl-methyl-xanthine, 0.1% fatty-acid free bovine serum albumin) with the desired concentration of compound added from a concentrated stock dissolved in dimethyl sulfoxide (DMSO) to give a final concentration of 1% DMSO in the assay. cAMP accumulation was measured using the CisBio homogeneous time resolved fluorescence (HTRF) assay kit (#62AM2PEC) following the manufacturer's protocol. Briefly, 10 μl each of the cAMP-HTRF fluorescence detection reagents were added to each well, and the samples were incubated for 40 min. at room temperature. Fluorescence was excited at 320 nm and measured at 665 and 620 nm using the Envision instrument (Perkin Elmer), the fluorescence ratio of 665/620 was calculated and converted to nanomolar concentrations of cAMP in each well by interpolation from a cAMP standard curve. The concentration-response curves and EC50 values were calculated with a four parameter logistic curve fit equation utilizing Excel/XLfit software (Microsoft and IDBS). The EC50 value was calculated as the concentration of agonist which increased the cAMP concentration to a value halfway between the baseline and the maximum.
Compounds of the present invention were tested in the Tet-inducible cAMP assay described immediately above and the results shown in Table 2 below were obtained.

The mark [1] stands for this setting: cAMP accumulation (HTRF), Flp-In-T-Rex-HEK293 cells expressing chimeric human/mouse GPR119, 50 min incubation, read-out: GPR119 EC50.

What is called EC50 is the concentration giving half of the maximal effect. On to `CCCc1cnc(N2CCC(Nc3nc4ccc(C5=CCN(S(C)(=O)=O)CC5)cc4s3)CC2)nc1` [Example 54], for which the EC50 under setting [1] was found to be 450 nM.

As for `CCCc1cnc(N2CCC(Oc3nc4ccc(C5=CCN(S(=O)(=O)CCCCCCP(=O)(OC)OC)CC5)cc4s3)CC2)nc1` [Example 177], the EC50 amounted to 9.7 nM.

With `CCCc1cnc(N2CCC(Oc3nc4ccc(C5=CCN(S(=O)(=O)c6cccc(C(=O)O)c6)CC5)cc4s3)CC2)nc1` [Example 79], under setting [1], the EC50 turned out to be 713 nM.

For the compound `CCCS(=O)(=O)N1CC=C(c2ccc3nc(OC4CCN(C(C)=O)CC4)sc3c2)CC1` [Example 92], the EC50 under setting [1] was determined as 839 nM.

Take `CCCc1cnc(N2CCC(Oc3nc4ccc(C5=CCN(S(=O)(=O)CCCC(C)(C)O)CC5)cc4s3)CC2)nc1` [Example 114]: the EC50 under setting [1] turned out to be 4.4 nM.

`Cc1nnc(N2CCC(Oc3nc4ccc(-c5ccc(S(C)(=O)=O)cc5)cc4s3)CC2)s1` [Example 294]: under setting [1], the EC50 was found to be 20.4 nM.

On to `CCCS(=O)(=O)N1CC=C(c2ccc3nc(OC4CCN(S(=O)(=O)C5CC5)CC4)sc3c2)CC1` [Example 22, 2-(1-(Cyclopropylsulfonyl)piperidin-4-yloxy)-6-(1-(propylsulfonyl)-1,2,3,6-tetrahydropyridin-4-yl)benzo[d]thiazole], for which the EC50 under setting [1] was 29.1 nM.

As to `CC(C)(O)CCS(=O)(=O)N1CC=C(c2ccc3nc(OC4CCN(c5nc6ccccc6s5)CC4)sc3c2)CC1` [Example 168], under setting [1], the EC50 was found to be 3 nM.

On to `CCCNC(=O)N1CC=C(c2ccc3nc(OC4CCN(c5ncc(CCC)cn5)CC4)sc3c2)CC1` [Example 194], for which the EC50 under setting [1] was 378 nM.

As for `CCCc1cnc(N2CCC(Cc3nc4ccc(N5CCN(S(=O)(=O)CCC(=O)OC)CC5)cc4o3)CC2)nc1` [Example 144], the EC50 under setting [1] was found to be 675 nM.

Turning to `CCCc1cnc(N2CCC(Nc3nc4ccc(C5=CCN(S(=O)(=O)CCC)CC5)cc4s3)CC2)nc1` [Example 53], under setting [1], the EC50 was determined as 283 nM.

With `COc1cnc(N2CCC(Oc3nc4ccc(C5=CCN(S(=O)(=O)CCCCO)CC5)cc4s3)CC2)nc1` [Example 241], the EC50 under setting [1] came out at 0.4 nM.

As to `CC(C)c1noc(N2CCC(Oc3nc4ccc(C5=CCN(S(=O)(=O)CCC(C)(C)O)CC5)cc4s3)CC2)n1` [Example 44, 4-(4-(2-(1-(3-Isopropyl-1,2,4-oxadiazol-5-yl)piperidin-4-yloxy)benzo[d]thiazol-6-yl)-5,6-dihydropyridin-1(2H)-ylsulfonyl)-2-methylbutan-2-ol], under setting [1], the EC50 is 7.2 nM.

Regarding `CCCc1cnc(N2CCC(Oc3nc4ccc(C5=CCN(c6nc(C)cs6)CC5)cc4s3)CC2)nc1` [Example 60], the EC50 under setting [1] was found to be 767 nM.

With `CCCc1cnc(N2CCC(Oc3nc4ccc(N5CCC(C(=O)N6CCCC6)CC5)cc4s3)CC2)nc1` [Example 45, (1-(2-(1-(5-Propylpyrimidin-2-yl)piperidin-4-yloxy)benzo[d]thiazol-6-yl)piperidin-4-yl)(pyrrolidin-1-yl)methanone], the EC50 under setting [1] is 463 nM.

As for `CCCc1cnc(N2CCC(Oc3nc4ccc(C5=CCN(S(=O)(=O)CCC(C)(C)OC(=O)CCC(=O)O)CC5)cc4s3)CC2)nc1` [Example 39, 4-(2-methyl-4-(4-(2-(1-(5-Propylpyrimidin-2-yl)piperidin-4-yloxy)benzo[d]thiazol-6-yl)-5,6-dihydropyridin-1(2H)-ylsulfonyl)butan-2-yloxy)-4-oxobutanoic acid], the EC50 under setting [1] amounted to 25 nM.

For the compound `CCCc1cnc(N2CCC(Oc3nc4ccc(C5=CCN(C(=O)CC(C)C)CC5)cc4s3)CC2)nc1` [Example 63], the EC50 under setting [1] amounted to 292 nM.

Turning to `CC(C)(O)CCS(=O)(=O)N1CCN(c2ccc3nc(OC4CCN(c5ncc(F)cn5)CC4)sc3c2)CC1` [Example 216], under setting [1], the EC50 was determined as 8.3 nM.

On to `CCCc1cnc(N2CC[C@H](Oc3nc4ccc(C5=CCN(S(=O)(=O)CCC)CC5)cc4s3)C2)nc1` [Example 115], for which the EC50 under setting [1] is 28.4 nM.

For `CCCc1cnc(N2CCC(Oc3nc4ccc(C5=CCN(S(=O)(=O)CCCO)CC5)cc4s3)CC2)nc1` [Example 3, 3-(4-(2-(1-(5-Propylpyrimidin-2-yl)piperidin-4-yloxy)benzo[d]thiazol-6-yl)-5,6-dihydropyridin-1(2H)-ylsulfonyl)propan-1-ol], under setting [1], the EC50 worked out at 11.1 nM.

As to `CCCc1cnc(N2CCC(Oc3nc4ccc(C5=CCN(c6ncc(C)s6)CC5)cc4s3)CC2)nc1` [Example 61], under setting [1], the EC50 is 547 nM.

Regarding `CCCCOC(=O)N1CC=C(c2ccc3nc(OC4CCN(c5ncc(CCC)cn5)CC4)sc3c2)CC1` [Example 81], the EC50 under setting [1] amounted to 142 nM.

For the compound `CCCc1cnc(N2CCC(Oc3nc4ccc(C5=CCN(S(=O)(=O)CCN6CC(O)C6)CC5)cc4s3)CC2)nc1` [Example 7, 1-(2-(4-(2-(1-(5-Propylpyrimidin-2-yl)piperidin-4-yloxy)benzo[d]thiazol-6-yl)-5,6-dihydropyridin-1(2H)-ylsulfonyl)ethyl)azetidin-3-ol], the EC50 under setting [1] amounted to 33.9 nM.

Turning to `CCCc1cnc(N2CCC(Cc3nc4ccc(C5=CCN(S(=O)(=O)CCC(C)(C)O)CC5)cc4o3)CC2)nc1` [Example 141], the EC50 under setting [1] is 9.5 nM.

Consider `CN(C)S(=O)(=O)N1CC=C(c2ccc3nc(OC4CCN(c5ncc(F)cn5)CC4)sc3c2)CC1` [Example 49, 4-(2-((1-(5-Fluoropyrimidin-2-yl)piperidin-4-yl)oxy)benzo[d]thiazol-6-yl)-N,N-dimethyl-5,6-dihydropyridine-1(2H)-sulfonamide], for which, under setting [1], the EC50 stood at 7.5 nM.

For the compound `CCCS(=O)(=O)N1CC=C(c2ccc3nc(OC4CCN(S(C)(=O)=O)CC4)sc3c2)CC1` [Example 111], the EC50 under setting [1] came to 228 nM.

For `CCCc1cnc(N2CCC(Oc3nc4ccc(C5=CCN(S(=O)(=O)C[C@@H](C)CO)CC5)cc4s3)CC2)nc1` (single isomer, unassigned) [Example 19], the EC50 under setting [1] turned out to be 2.3 nM.

For the compound `CCCS(=O)(=O)N1CC=C(c2ccc3nc(OC4CCN(c5nnc(C)s5)CC4)sc3c2)CC1` [Example 107], the concentration for a half-maximal effect (EC50) under setting [1] came to 21.5 nM.

In the case of `CC(C)(O)CCS(=O)(=O)N1CC=C(c2ccc3nc(OC4CCN(c5ncc(Cl)cn5)CC4)sc3c2)CC1` [Example 118], the EC50 under setting [1] turned out to be 3.6 nM.

Consider `CCCc1cnc(N2C[C@@H]3[C@@H](COc4nc5ccc(-c6ccc(S(C)(=O)=O)cc6)cc5s4)[C@@H]3C2)nc1` [Example 266], for which the EC50 under setting [1] amounted to 1080 nM.

Turning to `CCCc1cnc(N2CCC(Oc3nc4ccc(C5=CCN(S(=O)(=O)CCCC(=O)N(CC)CC)CC5)cc4s3)CC2)nc1` [Example 231], the EC50 under setting [1] worked out at 2.3 nM.

Consider `CCCc1cnc(N2CCC(Oc3nc4ccc(C5=CCN(S(=O)(=O)CCCCC[N+](CC)(CC)CC)CC5)cc4s3)CC2)nc1` [Example 32, N,N,N-triethyl-5-(4-(2-(1-(5-propylpyrimidin-2-yl)piperidin-4-yloxy)benzo[d]thiazol-6-yl)-5,6-dihydropyridin-1(2H)-ylsulfonyl)pentan-1-aminium bromide], for which, under setting [1], the EC50 amounted to 9.7 nM.

Consider `Cc1cc(C)nc(N2CCC(Oc3nc4ccc(-c5ccc(S(C)(=O)=O)cc5)cc4s3)CC2)n1` [Example 296], for which the EC50 under setting [1] came out at 46.1 nM.

Consider `CCCc1cnc(N2CCN(c3nc4ccc(C5=CCN(S(=O)(=O)CC(C)C)CC5)cc4s3)CC2)nc1` [Example 133], for which the EC50 under setting [1] amounted to 169 nM.

Turning to `CCCS(=O)(=O)N1CC=C(c2ccc3nc(OCC4[C@H]5CN(Cc6ccccc6)C[C@@H]45)sc3c2)CC1` (stereo partly shown) [Example 127], under setting [1], the EC50 was 29 nM.

For `CC(C)(O)CCS(=O)(=O)N1CC=C(c2ccc3nc(OC4CCN(S(=O)(=O)CC(F)(F)F)CC4)sc3c2)CC1` [Example 205], the EC50 under setting [1] turned out to be 169 nM.

Regarding `CCCc1cnc(N2CCC(Oc3nc4ccc(C5=CCN(C(=O)c6csnn6)CC5)cc4s3)CC2)nc1` [Example 73], the EC50 under setting [1] was found to be 788 nM.
